Data set [1] has as its system human KRAS G12C mutated cell line MIA PaCa-2. In words: KRas G12C in vitro inhibitory activity: cell proliferation, CellTiter-Glo. The data set is classed as cell-based.
Excerpt: (§1) The present example evaluates the ability of compounds provided herein to inhibit proliferation of KRAS mutant cells.
The inhibitory effect on cell proliferation was investigated in the human KRAS G12C mutated cell line MIA PaCa-2 (Yunis et al., 1977, Int. J. Cancer 19(1):128-135; ATCC catalog no. CRL-1420). Cells were maintained in RPMI-1640 medium (ThermoFisher catalog no. 61870036) supplemented with 10% of Heat Inactivated FBS (ThermoFisher catalog no. A31605) and 1% Pen-Strep (ThermoFisher catalog no. 10378016) and cultured at 37° C. in a humidified incubator with 5% CO2. Cells were grown by adhering to culture flasks, and maintained at 70%-80% confluency.
(§2) ATP is present in all metabolically active cells and is considered as a marker for viable cells. The number of metabolically active live cells in culture was determined using the CellTiter-Glo kit (Promega catalog no. G7572), an ATP monitoring system based on the production of luminescence by the reaction of ATP with added UltraGlo® recombinant luciferase (Kawano et al., 2016, PLOS One, 8; 11(7):e0158888), according to the supplier's experimental recommendations. The cell proliferation assay was based on a 96 well plate format.
Test compounds were dissolved at 10 mM in DMSO (Sigma catalog no. D8418; purity >99.9%) and stored at −20° C. Eight concentrations of test compound were assessed in duplicate in an individual test occasion in parallel in the selected cell lines. MRTX-849 and AMG-510 were used as reference compounds and tested in duplicate at eight concentrations. 100% of proliferation is represented by the untreated cells (0.2% DMSO).
On the day of the experiment (TO), cells were detached with TrypLE (ThermoFisher catalog no. 12604054), quantified using the cell viability analyser NucleoCounter (Chemometec NC-200) and resuspended in fresh medium at a cell density of about 5000 cells per 200 μL medium. 200 μL of cell suspension were added to each well of a 96 well plate.
Two hours after seeding cells, compounds were added at desired concentrations using a D300e compound dispenser (Life Sciences Tecan D300) with shaking after each compound addition. Assay plates were incubated at 37° C. in a humidified incubator with 5% CO2.
(§3) To measure 3 day inhibition of cell proliferation on day 3 (T3), assay plates were equilibrated to room temperature for approximately 15 min, and the Promega CellTiterGlo® reagent was added at 40 μL/well. Contents were mixed for 5 min on an orbital shaker to induce cell lysis, and then incubated at room temperature for an additional 10 min in the dark to stabilize the luminescent signal. Luminescence was read using a GloMax GM300 plate reader (Promega) using the luminescence for 96 well plate standard protocol.
as §3, with “measure 7” for “measure 3”, “(T3), 150 μL of growth media was removed from each well of the assay plates and replaced with 150 uL fresh growth media, and fresh compounds added using a D300e compound dispenser (Life Sciences Tecan D300) at desired concentrations with shaking between each compound addition. Assay plates were incubated at 37° C. in a humidified incubator with 5% CO2. On day 7 (T7)” for “(T3),”
Data was expressed as % of inhibition compared to the 0.2% DMSO negative no drug control, and is calculated as follows: % inhibition=100−[(RLU sample)×100/(RLU average controls*)], where * indicates the average for 0.2% DMSO.
(§4) Results were analyzed by GraphPad (Prism) and IC50 values were calculated by non-linear regression using four parameter-logistic equation. […]

Data set [2] relates to human KRAS G12D mutated cell line SUIT-2. In words: KRas G12D in vitro inhibitory activity: cell proliferation, CellTiter-Glo. The data set is classed as cell-based. The settings on record: 7 day inhibition of cell proliferation, medium and compound renewed on day 3, CellTiter-Glo luminescence.
Excerpt: as §1
The proliferation inhibitory effect was investigated in the human KRAS G12D mutated cell line SUIT-2 (Iwamura et al., 1987, Jpn. J. Cancer Res. 78.54-62; JCRB catalog no. JCRB1094). Cells were maintained in RPMI-1640 medium (ThermoFisher catalog no. 61870036) supplemented with 10% of Heat Inactivated FBS (ThermoFisher catalog no. A31605) and 1% Pen-Strep (ThermoFisher catalog no. 10378016) and cultured at 37° C. in a humidified incubator with 5% CO2. Cells were grown by adhering to culture flasks, and maintained at 70%-80% confluency.
as §2
Test compounds were dissolved at 10 mM in DMSO (Sigma catalog no. D8418; purity >99.9%) and stored at −20° C. Eight concentrations of test compound were assessed in duplicate in an individual test occasion in parallel in the selected cell lines. MRTX-849 and AMG-510 were used as reference compounds and tested in duplicate at eight concentrations. 100% of proliferation is represented by the untreated cells (0.1% DMSO).
On the day of the experiment (TO), cells were detached with TrypLE (ThermoFisher catalog no. 12604054) quantified using the cell viability analyzer NucleoCounter (Chemometec NC-200) and resuspended in fresh medium at a cell density of about 1000 cells per 200 μL medium. 200 μL of cell suspension were added to each well of a 96 well plate.
Two 2 hours after seeding cells, compounds were added at desired concentrations using a D300e compound dispenser (Life Sciences Tecan D300) with shaking after each compound addition. Assay plates were incubated at 37° C. in a humidified incubator with 5% CO2.
On day 3 (T3), 150 μL of growth media was removed from each well of the assay plates and replaced with 150 uL fresh growth media, and fresh compounds added using a D300e compound dispenser (Life Sciences Tecan D300) at desired concentrations with shaking between each compound addition. […] Luminescence was read using a GloMax GM300 plate reader (Promega) using the luminescence for 96 well plate standard protocol. […]
as §4
Background: ATP-based viability assays read luminescence as a measure of living cells.

For data set [3] the following is noted: ester bond, 18-membered ring, DCM, 25.0 °C, 16.0 h, 2 steps.
Setting [4] is: Homo sapiens, MIA PaCa-2, 72 h, 3 day inhibition of cell proliferation, CellTiter-Glo luminescence, read-out: MIA PaCa-2 Day 3 IC50.
[5] abbreviates: Homo sapiens, MIA PaCa-2, 7 day inhibition of cell proliferation, medium and compound renewed on day 3, CellTiter-Glo luminescence, read-out: MIA PaCa-2 Day 7 IC50.

Each structure is given as a SMILES string. Read-outs that look alike come from different tables or passages of the source.

As a reminder, the IC50 is the concentration that inhibits the measured activity by half.

On to `CCn1c(-c2cccnc2[C@H](C)OC)c2c3cc(ccc31)-c1cccc(c1)C[C@H](NC(=O)[C@H](C(C)C)N(C)C(=O)[C@H]1CCN(C(C)C#CC(=O)N(C)C)C1)C(=O)N1CCC[C@H](N1)C(=O)OCC(C)(C)C2` (stereo partly shown) [Compound 5], for which the 50% inhibitory concentration (IC50) in data set [1] (setting [4]) was 1 to 10 nM; in data set [1] (setting [5]) it was 10 to 100 nM; in data set [2], over 100 nM.
As for `CCn1c(-c2cccnc2[C@H](C)OC)c2c3cc(ccc31)-c1cccc(c1)C[C@H](NC(=O)OC(C)(C)C)C(=O)N1CCC[C@H](C1)C(=O)OCC(C)(C)C2`, the ring closure, isolated yield in data set [3] (from CCn1c(-c2cccnc2[C@H](C)OC)c(CC(C)(C)CO)c2cc(-c3cccc(C[C@H](NC(=O)OC(C)(C)C)C(=O)N4CCC[C@@H](C(=O)O)C4)c3)ccc21, EDCI/HOBT/DIPEA, 9.6 mM) was determined as 62%; in data set [3] (from CCn1c(-c2cccnc2[C@H](C)OC)c(CC(C)(C)CO)c2cc(-c3cccc(C[C@H](NC(=O)OC(C)(C)C)C(=O)N4CCC[C@@H](C(=O)O)C4)c3)ccc21, EDCI/HOBT/DIPEA, 9.9 mM) it was 56%.
As to `CCn1c(-c2cccnc2[C@H](C)OC)c2c3cc(ccc31)-c1cccc(c1)C[C@H](NC(=O)[C@H](C(C)C)N(C)C(=O)[C@H]1CCN(C(=O)C#CCN3CCOCC3)C1)C(=O)N1CCC[C@H](C1)C(=O)OCC(C)(C)C2` (atropisomer, axis not shown) [Compound 1, (3S)—N-((2S)-1-(((6^3R,4S)-1^1-ethyl-1^2-(2-((S)-1-methoxyethyl)pyridin-3-yl)-10,10-dimethyl-5,7-dioxo-1^1H-8-oxa-1(5,3)-indola-6(1,3)-piperidina-2(1,3)-benzenacycloundecaphane-4-yl)amino)-3-methyl-1-oxobutan-2-yl)-N-methyl-1-(4-morpholinobut-2-ynoyl)pyrrolidine-3-carboxamide], the IC50 in data set [1] (7 day inhibition of cell proliferation, medium and compound renewed on day 3, CellTiter-Glo luminescence, read-out: MIA PaCa-2 Day 7 IC50) was 10 to 100 nM; in data set [2], over 100 nM.
For `CCn1c(-c2cccnc2[C@H](C)OC)c2c3cc(ccc31)-c1cccc(c1)C[C@H](NC(=O)OC(C)(C)C)C(=O)N1CC[C@@H](C1)C(=O)OCC(C)(C)C2`, in data set [3] (from CCn1c(-c2cccnc2[C@H](C)OC)c(CC(C)(C)CO)c2cc(-c3cccc(C[C@H](NC(=O)OC(C)(C)C)C(=O)N4CC[C@H](C(=O)O)C4)c3)ccc21, EDC/HOBT/DIPEA, 47.2 mM), the ring closure, isolated yield turned out to be 60%.
For the compound `CCn1c(-c2cccnc2[C@H](C)OC)c2c3cc(ccc31)-c1cccc(c1)C[C@H](NC(=O)[C@H](C(C)C)N(C)C(=O)[C@H]1CCN(CC#CC(=O)N(C)C)C1)C(=O)N1CCC[C@H](N1)C(=O)OCC(C)(C)C2` (atropisomer, axis not shown) [Compound 3, (3S)-1-(4-(dimethylamino)-4-oxobut-2-yn-1-yl)-N-((2S)-1-(((6^3S,4S)-1^1-ethyl-1^2-(2-((S)-1-methoxyethyl)pyridin-3-yl)-10,10-dimethyl-5,7-dioxo-6^1,6^2,6^3,6^4,6^5,6^6-hexahydro-1^1H-8-oxa-1(5,3)-indola-6(1,3)-pyridazina-2(1,3)-benzenacycloundecaphane-4-yl)amino)-3-methyl-1-oxobutan-2-yl)-N-methylpyrrolidine-3-carboxamide], the 50% inhibitory concentration (IC50) in data set [1] (setting [4]) is 1 to 10 nM; in data set [1] (setting [5]) it was 1 to 10 nM; in data set [2] it was over 100 nM.
For `CCn1c(-c2cccnc2[C@H](C)OC)c2c3cc(ccc31)-c1cccc(c1)C[C@H](NC(=O)[C@H](C(C)C)N(C)C(=O)[C@H]1CCN(C(=O)C#CC(=O)N(C)C)C1)C(=O)N1CCC[C@H](N1)C(=O)OCC(C)(C)C2` (atropisomer, axis not shown) [Compound 4], the IC50 in data set [1] (setting [5]) and in data set [2] was over 100 nM throughout.
